6 compounds from ChEMBL document CHEMBL1142219, “Discovery of platencin, a dual FabF and FabH inhibitor with in vivo antibiotic properties” (Proc Natl Acad Sci U S A, 2007) can be followed below.

The nature of data set [1]: Inhibition of Staphylococcus aureus FabH assessed as reduced accumulation of acetoacetyl-ACP by FabF/FabH PAGE elongation assay.
Data set [2] relates to Staphylococcus aureus. The experiment in a line: Inhibition of Staphylococcus aureus FabF assessed as reduced accumulation of long chain beta-ketoacyl-ACP at 20 ug/ml by FabF/FabH PAGE elongation assay.
Data set [3] concerns Staphylococcus aureus. The experiment in a line: Inhibition of Staphylococcus aureus FabF assessed as reduced accumulation of long chain beta-ketoacyl-ACP at 2 ug/ml by FabF/FabH PAGE elongation assay.
A short description of data set [4]: Toxicity in human RBC assessed as drug level causing hemolysis. The conditions noted are these: erythrocyte. The data set is classed as cell-based.
For data set [5], the system named is Escherichia coli. The experiment in a line: Antibacterial activity against wild type Escherichia coli. The data set is classed as functional.
Data set [6] deals with Staphylococcus aureus. The experiment in a line: Antibacterial activity against methicillin and linezolid-resistant Staphylococcus aureus. The data set is classed as functional.
In the next data set the test system is Enterococcus faecium. The experiment in a line: Antibacterial activity against vancomycin-resistant Enterococcus faecium. The data set is classed as functional.
For another data set, the system named is HeLa. The experiment in a line: Cytotoxicity against human HeLa cells by MTT assay. The data set is classed as functional, cell-based.
The subject of data set [7] is Escherichia coli. The experiment in a line: Antibacterial activity against efflux negative-tolC mutant containing Escherichia coli. The data set is classed as functional.
For the next data set, the system named is Candida albicans. The experiment in a line: Antifungal activity against Candida albicans. The data set is classed as functional.
The test system of data set [8] is Staphylococcus aureus. The experiment in a line: Antibacterial activity against methicillin-sensitive Staphylococcus aureus infected mouse kidney assessed as log reduction of bacterial count at 150 ug/hr after 24 hrs. The data set is classed as functional.
Another data set has as its system Enterococcus faecalis. The experiment in a line: Antibacterial activity against macrolide-resistant Enterococcus faecalis. The data set is classed as functional.
The subject of data set [9] is Staphylococcus aureus. The experiment in a line: Antibacterial activity against methicillin and macrolide-resistant Staphylococcus aureus. The data set is classed as functional.
The species entered for the next data set is Mus musculus. The experiment in a line: Toxicity in methicillin-sensitive Staphylococcus aureus infected mouse model at 150 ug/hr after 24 hrs. Particulars: in vivo. The data set is classed as organism-based.
Data set [10] relates to Staphylococcus aureus. The experiment in a line: Antibacterial activity against methicillin-resistant Staphylococcus aureus. The data set is classed as functional.
A short description of data set [11]: Inhibition of Staphylococcus aureus FabF by direct binding assay.
Data set [12] has as its system Staphylococcus aureus. The experiment in a line: Antibacterial activity against vancomycin-intermediate resistant Staphylococcus aureus. The data set is classed as functional.
The subject of data set [13] is Staphylococcus aureus. The experiment in a line: Inhibition of fatty acid synthesis in Staphylococcus aureus in whole cell activity assay. The data set is classed as functional, organism-based.
The nature of data set [14]: Inhibition of Staphylococcus aureus FabF assessed as reduced accumulation of acetoacetyl-ACP by FabF/FabH PAGE elongation assay.
In data set [15] the test system is Streptococcus pneumoniae. The experiment in a line: Inhibition of fatty acid synthesis in Streptococcus pneumoniae in whole cell activity assay. The data set is classed as functional, organism-based.
Data set [16] relates to Streptococcus pneumoniae. The experiment in a line: Antibacterial activity against Streptococcus pneumoniae. The data set is classed as functional.
In data set [17] the test system is Staphylococcus aureus. The experiment in a line: Antibacterial activity against Staphylococcus aureus in presence of serum. The data set is classed as functional.
The subject of data set [18] is Staphylococcus aureus. The experiment in a line: Antibacterial activity against methicillin-sensitive Staphylococcus aureus. The data set is classed as functional.
In data set [19] the test system is Staphylococcus aureus. The experiment in a line: Antibacterial activity against Staphylococcus aureus expressing antisense fabF assessed as drug level causing >5 mm zone of inhibition after 18 hrs by agar diffusion two plate differential sensitivity antisense assay. The data set is classed as functional.
For data set [20], the target named is T1, Malonyl CoA-acyl carrier protein transacylase (Staphylococcus aureus) (UniProt Q93QD4).
T1 sequence (whole entry): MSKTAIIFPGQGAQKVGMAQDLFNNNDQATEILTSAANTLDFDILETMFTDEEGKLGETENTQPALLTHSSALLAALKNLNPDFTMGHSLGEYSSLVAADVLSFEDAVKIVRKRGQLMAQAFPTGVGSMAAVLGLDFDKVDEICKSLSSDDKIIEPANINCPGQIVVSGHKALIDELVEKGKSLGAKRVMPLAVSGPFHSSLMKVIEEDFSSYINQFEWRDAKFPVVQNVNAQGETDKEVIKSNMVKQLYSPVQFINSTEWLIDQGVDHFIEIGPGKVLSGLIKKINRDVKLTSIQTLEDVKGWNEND
The experiment in a line: Inhibition of Staphylococcus aureus FabD assessed as reduced malonyl-ACP levels.

Data set [21] can be described thus: Inhibition of Staphylococcus aureus FabH by direct binding assay.
Data set [22] in a line: Inhibition of Staphylococcus aureus FabH assessed as reduced accumulation of long chain beta-ketoacyl-ACP by FabF/FabH PAGE elongation assay.
Data set [23] deals with Staphylococcus aureus. The experiment in a line: Inhibition of DNA biosynthesis in Staphylococcus aureus upto 50 ug/ml in whole cell activity assay. The data set is classed as functional, organism-based.
A short description of data set [24]: Inhibition of Staphylococcus aureus FabF assessed as reduced accumulation of long chain beta-ketoacyl-ACP by FabF/FabH PAGE elongation assay.
For data set [25], the system named is Staphylococcus aureus. The experiment in a line: Inhibition of protein biosynthesis in Staphylococcus aureus upto 50 ug/ml in whole cell activity assay. The data set is classed as functional, organism-based.
Data set [26] relates to Staphylococcus aureus. The experiment in a line: Inhibition of RNA biosynthesis in Staphylococcus aureus upto 50 ug/ml in whole cell activity assay. The data set is classed as functional, organism-based.
The test system of data set [27] is Staphylococcus aureus. The experiment in a line: Inhibition of cell wall biosynthesis in Staphylococcus aureus upto 50 ug/ml in whole cell activity assay. The data set is classed as functional, organism-based.

In brackets after ≈: the same amount, converted by molar mass. Activity calls are given as the source filed them. No cut-off for these calls is given here.

Consider `O=C(O)c1cc2cc(OCc3c(Cl)cccc3Cl)ccc2n1Cc1cc2c(cc1Cl)OCO2`, for which, in [1], the concentration for half-maximal inhibition (IC50) came to 3.96 µM. Also, the values for the inhibition in the data set with Staphylococcus aureus [2] and in the data set on Staphylococcus aureus [3] were 90% and 50%, respectively.
Turning to `C[C@@H]1[C@H](O)[C@@H](C)/C=C/C=C/C=C/C=C/C=C/C=C/C=C/[C@H](O[C@@H]2O[C@H](C)[C@@H](O)[C@H](N)[C@@H]2O)C[C@@H]2O[C@](O)(C[C@@H](O)C[C@@H](O)[C@H](O)CC[C@@H](O)C[C@@H](O)CC(=O)O[C@H]1C)C[C@H](O)[C@H]2C(=O)O` [AMPHOTERICIN B], in data set [4], the Activity is 2 µg/mL.
In the case of `O=C(N[C@H](CO)[C@H](O)c1ccc([N+](=O)[O-])cc1)C(Cl)Cl` [CHLORAMPHENICOL], the Activity in data set [4] is over 64 µg/mL.
As to `CC(=O)NC[C@H]1CN(c2ccc(N3CCOCC3)c(F)c2)C(=O)O1` [LINEZOLID], the MIC against Escherichia coli [5] was over 64 µg/mL; against Staphylococcus aureus [6], 32 µg/mL (≈ 94.9 µM); in the data set on Enterococcus faecium it was 2 µg/mL (≈ 5.93 µM); in the data set with Escherichia coli [7], 32 µg/mL (≈ 94.9 µM); with Candida albicans, over 64 µg/mL. Also, the Activity in data set [4] is over 67 µg/mL. Moreover, the IC50 in the data set on HeLa is over 100 µg/mL.
On to `C=C1C[C@@]23C=CC(=O)[C@@](C)(CCC(=O)Nc4c(O)ccc(C(=O)O)c4O)[C@@H]2C[C@@H]1CC3` [PLATENCIN], for which the MIC in the data set on Escherichia coli [5] is over 64 µg/mL; in the data set on Staphylococcus aureus [6] it was 1 µg/mL (≈ 2.35 µM); against Enterococcus faecalis it was 2 µg/mL (≈ 4.7 µM); against Staphylococcus aureus [9], 1 µg/mL (≈ 2.35 µM); in the data set on Staphylococcus aureus [10], 1 µg/mL (≈ 2.35 µM); with Enterococcus faecium, under 0.06 µg/mL. The minimum inhibitory concentration (MIC) in the data set with Escherichia coli [7] was 2 µg/mL (≈ 4.7 µM); against Candida albicans, over 64 µg/mL; with Staphylococcus aureus [12], 0.5 µg/mL (≈ 1.18 µM); in the data set on Streptococcus pneumoniae [16] it was 4 µg/mL (≈ 9.4 µM); in the data set on Staphylococcus aureus [17], 8 µg/mL; against Staphylococcus aureus [18], 0.5 µg/mL (≈ 1.18 µM). The Activity is 3 with Staphylococcus aureus [8], over 67 µg/mL in [4], “Non-toxic” in the data set listed under Mus musculus and 0.002 µg in the data set on Staphylococcus aureus [19]. Moreover, the IC50 is over 100 µg/mL in the data set on HeLa; 0.113 µM in data set [11]; 0.19 µg/mL (≈ 0.447 µM) in the data set on Staphylococcus aureus [13]; 4.58 µM in data set [14]; 2.7 µg/mL (≈ 6.35 µM) in the data set on Streptococcus pneumoniae [15]; 16.2 µM in data set [21]. Moreover, in data set [22], the IC50 was 9.17 µM. The outcome in data set [20] was inactive.
In the case of `CC12C[C@@]34C=CC(=O)[C@@](C)(CCC(=O)Nc5c(O)ccc(C(=O)O)c5O)C3[C@H](CC1C4)O2` (stereo partly specified) [PLATENSIMYCIN], the result (with Staphylococcus aureus [23]; in the data set on Staphylococcus aureus [25]; with Staphylococcus aureus [26]; with Staphylococcus aureus [27]; in data set [20]) was inactive. Besides, the MIC in the data set on Escherichia coli [5] was over 64 µg/mL; against Staphylococcus aureus [6], 1 µg/mL (≈ 2.27 µM); against Enterococcus faecalis, 1 µg/mL (≈ 2.27 µM); in the data set on Staphylococcus aureus [9], 0.5 µg/mL (≈ 1.13 µM); against Staphylococcus aureus [10], 0.5 µg/mL (≈ 1.13 µM); with Enterococcus faecium, 0.1 µg/mL (≈ 0.227 µM). Further, the minimum inhibitory concentration (MIC) was 16 µg/mL (≈ 36.2 µM) with Escherichia coli [7]; over 64 µg/mL in the data set with Candida albicans; 0.5 µg/mL (≈ 1.13 µM) with Staphylococcus aureus [12]; 1 µg/mL (≈ 2.27 µM) with Streptococcus pneumoniae [16]; 2 µg/mL with Staphylococcus aureus [17]; 0.5 µg/mL (≈ 1.13 µM) in the data set with Staphylococcus aureus [18]. Moreover, the IC50 in data set [1] was 247 µM; in the data set with HeLa, over 1000 µg/mL; in the data set on Staphylococcus aureus [13], 0.1 µg/mL (≈ 0.227 µM); in the data set on Streptococcus pneumoniae [15], 0.8 µg/mL (≈ 1.81 µM); in data set [24], 0.29 µM; in data set [21], 67 µM. In addition, the Activity in [4] was over 67 µg/mL; in the data set with Staphylococcus aureus [19] it was 0.004 µg.
